The text below walks through data of US6562378B1, “Nutritional supplement for adolescents” (TSAR Health Private Ltd., priority 2002, dated 2003).

The structures appear in SMILES notation. Marks after values point to notes of the source that are not given here.

Assay type in all cases: in vivo, human
For assay [1], the system named is Antibody response. The experiment in a line: Zinc dose response: antibody response. The following applies: adolescents. The protocol: (§1) The basic concept underlying the assessment of the most optimum nutrient amounts for a given age group uses the principle of “dose-response curves”. At least four groups of individuals were provided with various amounts of a given nutrient and their immune responses were measured using established and accepted techniques. The amount of a nutrient that gave the best response was considered the optimum amount. Dose response curves were determined for all vitamins and trace elements considered essential for human health, particularly immunity.
(§2) The ratio of radioactivity in the test samples divided by radioactivity in control samples gave the “stimulation response” shown in FIGS. 1 and 2.

In assay [2] the test system is Thymulin activity. The experiment in a line: Zinc dose response: thymulin activity. The conditions noted are these: adolescents. As to the method: as §1, §2
Assay [3] relates to Interleukin-2. In words: Zinc dose response: interleukin-2. The conditions noted are these: adolescents, median (standard deviation). As to the method: as §1, §2
Assay [4] deals with blood lymphocytes. In words: Zinc dose response: lymphocyte response to PHA (thymidine uptake, stimulation index). The following applies: 13-18 year old adolescents, median (standard deviation). The protocol: as §1
Data for the dose response curve for zinc in a group of 13-18 year old adolescents is shown in FIGS. 1 and 2, with the total amount of zinc taken is shown for each group. To determine the magnitude of immune response, an aliquot of blood was withdrawn from each subject in the study, blood lymphocytes were separated, washed and mixed with the mitogen phytohemagglutinin (PHA) in previously determined optimum amount. The optimum amount of PHA used in the experiments was predetermined by a set of dose response curves using lymphocytes of a healthy donor and four different concentrations of PHA. After culture in a sterile environment for 72 hours, the cells were washed and mixed with radioactive thymidine. The same steps were undertaken in a control sample in which only the culture medium was used, not PHA. The cells were washed and radioactivity determined.
as §2

[5] abbreviates: supplemental zinc 11 mg/day plus 7 mg in diet.
[6] abbreviates: supplemental zinc 28 mg/day plus 7 mg in diet.
[7] abbreviates: supplemental zinc 55 mg/day plus 7 mg in diet.

Turning to `[Zn]` [zinc], the figures for the “Antibody response (median reciprocal titre)” value in assay [1] (setting [5]), in assay [1] (setting [6]) and in assay [1] (setting [7]) were 254, 136 and 97, respectively. Further, the “Thymulin activity (median reciprocal titer)” value in assay [2] (setting [5]) is given as 114*; in assay [2] (setting [6]), 123*; in assay [2] (setting [7]), 106*. For the same compound, the Interleukin-2 is 17 (1.4) units/ml in assay [3] (setting [5]), 11 (1.5) units/ml in assay [3] (setting [6]) and 9 (1.1) units/ml in assay [3] (setting [7]). For the same compound, the figures for the “Lymphocyte Response to PHA (stimulation index)” value in assay [4] (setting [5]), in assay [4] (setting [6]) and in assay [4] (setting [7]) were 77 (8), 51 (6) and 40 (7), respectively.
